Data: patent publication US9597315B2, “1-heteroaryl-3-azabicyclo[3.1.0]hexanes, methods for their preparation and their use as medicaments” (EUTHYMICS BIOSCIENCE, INC., priority 2007, dated 2017)

What was measured:
Assay type in all cases: cell-based
human 5-HT transporter = target: T1, human 5-HT transporter (Homo sapiens, UniProt P31645); test: Inhibition of [3H]5-HT uptake in cells expressing the recombinant human 5-HT transporter; details: HEK 293 cells expressing the 5-HT transporter; for inhibition at 1 µM: HEK293, 1 μM compound, read-out: Uptake inh. % at 1 μM 5-HT
T1 construct: expressed in transfected cells; host or cells: HEK 293 cells
T1 sequence (P31645 whole entry): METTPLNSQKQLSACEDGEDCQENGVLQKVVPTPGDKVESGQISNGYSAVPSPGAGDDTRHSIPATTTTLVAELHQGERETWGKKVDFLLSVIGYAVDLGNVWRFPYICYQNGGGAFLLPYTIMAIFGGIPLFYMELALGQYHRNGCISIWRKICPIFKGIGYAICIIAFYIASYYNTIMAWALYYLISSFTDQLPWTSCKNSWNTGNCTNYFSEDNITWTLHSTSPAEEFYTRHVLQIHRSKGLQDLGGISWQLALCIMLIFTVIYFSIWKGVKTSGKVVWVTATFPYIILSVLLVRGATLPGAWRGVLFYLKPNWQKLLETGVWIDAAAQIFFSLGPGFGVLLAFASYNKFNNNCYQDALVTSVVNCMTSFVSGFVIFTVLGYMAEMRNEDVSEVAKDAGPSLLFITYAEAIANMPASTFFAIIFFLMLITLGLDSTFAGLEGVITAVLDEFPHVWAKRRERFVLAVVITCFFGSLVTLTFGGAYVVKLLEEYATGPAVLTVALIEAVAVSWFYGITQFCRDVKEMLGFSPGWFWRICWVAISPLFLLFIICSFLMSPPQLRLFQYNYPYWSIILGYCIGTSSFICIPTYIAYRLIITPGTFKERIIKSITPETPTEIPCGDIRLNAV
Protocol: (§1) The ability of the 1-heteroaryl-3-azabicyclo[3.1.0.]hexane of the invention for inhibiting transport of norepinephrine (NE) and/or dopamine (DA) and/or serotonin (5-HT) were evaluated using cell lines (such as the HEK 293 cell line) that stably express recombinant human NE, DA, and 5-HT transporters, respectively. The techniques for stably transfecting mammalian cell lines with neurotransmitter transporters and measuring the effects of drugs on amine uptake have been described in the literature (e.g., Gu, H., et al. J. Biol. Chem. 269:7124-7130, 1994; Eshleman A J, J Pharmacol Exp Ther 289:877-885, 1999) and well known to those skilled in the art.
(§2) A basic technique for measuring the ability of a compound to inhibit [^3H]NE, DA, and 5-HT uptake in cell lines recombinantly expressing human transporters has been described (Eshleman, et al., 1999). In brief, cell suspensions (HEK 293 cells expressing the 5-HT transporter; MDCK cells expressing the NE transporter, and CHO-K1 cells expressing the DA transporter, respectively) can be prepared for assay by removing the medium from cells grown on tissue culture dishes, then washing the plates with buffered medium. Cells can then be gently scraped from the plates and cell clusters separated by trituration with a pipette for 5-10 aspiration/ejection cycles. To these cell suspensions were added test drugs (final concentrations generally from 0.01-5 μM) and Tris/Hepes buffer, pH 7.1 (also containing 120 mM NaCl, 1.2 mM CaICl2, 1.2 mM MgSO4, 5 mM D-glucose, and 1 mM ascorbic acid). Following a preincubation of the isolated cells at 25° C., either [^3H]DA, [^3H]5-HT, or [^3H]NE was added and the incubation continued an additional 10 minutes. Radiolabelled neurotransmitter uptake was terminated by vacuum filtration and washing through Whatman glass fiber filters (GF/C), and the radioactivity retained on the filters was measured by liquid scintillation spectrometry. Specific uptake was defined as the difference in uptake observed in the absence and presence of a large molar excess of nomifensine, desipramine, or fluoxetine (for [^3H]DA, [^3H]NE or [^3H]5-HT, respectively].
(§3) The results of these assays are shown in Table 2, below, which indicates, for each of the exemplary compounds, the structure of the substituent, and levels of observed uptake inhibition percentage for each of the indicated neurotransmitters at a fixed concentration of compound, or the IC50 value, defined as that concentration of compound necessary to inhibit uptake by 50%. These are standard terms known to those skilled in the art.

human DA transporter = target: T2, human DA transporter (Homo sapiens, UniProt Q01959); test: Inhibition of [3H]DA uptake in cells expressing the recombinant human DA transporter; details: CHO-K1 cells expressing the DA transporter; for inhibition at 1 µM: 1 μM compound, read-out: Uptake inh. % at 1 μM DA
T2 construct: expressed in transfected cells; host or cells: CHO-K1 cells
T2 sequence (Q01959 whole entry): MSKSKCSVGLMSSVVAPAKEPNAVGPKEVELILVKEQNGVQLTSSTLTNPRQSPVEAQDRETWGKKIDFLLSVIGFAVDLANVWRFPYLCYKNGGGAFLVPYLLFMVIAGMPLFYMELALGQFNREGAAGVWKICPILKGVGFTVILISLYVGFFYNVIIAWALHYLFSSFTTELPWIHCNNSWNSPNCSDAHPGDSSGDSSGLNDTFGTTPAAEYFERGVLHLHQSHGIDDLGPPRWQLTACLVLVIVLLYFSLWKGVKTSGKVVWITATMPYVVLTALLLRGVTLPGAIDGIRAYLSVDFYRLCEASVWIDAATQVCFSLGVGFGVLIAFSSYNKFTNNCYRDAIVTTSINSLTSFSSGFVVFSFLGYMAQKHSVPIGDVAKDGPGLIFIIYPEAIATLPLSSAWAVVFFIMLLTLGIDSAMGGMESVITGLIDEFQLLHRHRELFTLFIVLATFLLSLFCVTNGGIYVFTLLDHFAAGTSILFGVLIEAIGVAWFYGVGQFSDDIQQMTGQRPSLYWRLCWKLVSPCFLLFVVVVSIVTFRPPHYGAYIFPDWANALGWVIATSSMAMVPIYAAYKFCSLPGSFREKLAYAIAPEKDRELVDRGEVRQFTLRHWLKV
Protocol: as §1, §2, §3

human NE transporter = target: T3, human NE transporter (Homo sapiens, UniProt P23975); test: Inhibition of [3H]NE uptake in cells expressing the recombinant human NE transporter; details: MDCK cells expressing the NE transporter; for inhibition at 1 µM: 1 μM compound, read-out: Uptake inh. % at 1 μM NE
T3 construct: expressed in transfected cells; host or cells: MDCK cells
T3 sequence (P23975 whole entry): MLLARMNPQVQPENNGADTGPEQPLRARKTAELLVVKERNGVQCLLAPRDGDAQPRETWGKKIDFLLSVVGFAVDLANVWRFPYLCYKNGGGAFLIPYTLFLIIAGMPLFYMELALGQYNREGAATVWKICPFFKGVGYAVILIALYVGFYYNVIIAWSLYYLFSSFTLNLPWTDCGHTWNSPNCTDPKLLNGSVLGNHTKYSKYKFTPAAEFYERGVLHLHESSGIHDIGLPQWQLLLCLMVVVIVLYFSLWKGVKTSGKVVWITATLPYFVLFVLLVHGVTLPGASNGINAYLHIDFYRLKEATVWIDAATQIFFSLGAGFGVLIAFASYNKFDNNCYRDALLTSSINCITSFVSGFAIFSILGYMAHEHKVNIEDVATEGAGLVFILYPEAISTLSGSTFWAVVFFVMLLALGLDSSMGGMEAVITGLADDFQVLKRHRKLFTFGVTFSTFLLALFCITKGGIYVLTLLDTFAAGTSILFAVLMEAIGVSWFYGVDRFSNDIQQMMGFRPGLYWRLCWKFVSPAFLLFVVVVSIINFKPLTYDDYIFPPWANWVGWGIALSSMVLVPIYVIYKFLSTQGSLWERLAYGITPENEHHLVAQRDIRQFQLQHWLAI
Protocol: as §1, §2, §3

SMILES	IC50 (human 5-HT transporter) [nM]	IC50 (human DA transporter) [nM]	IC50 (human NE transporter) [nM]	inhibition at 1 µM (human 5-HT transporter) [%]	inhibition at 1 µM (human DA transporter) [%]	inhibition at 1 µM (human NE transporter) [%]
CN1CC2CC2(c2cc3ccccc3o2)C1 (stereo not drawn)	340	630	400			
CN1CC2CC2(c2cc3ccc(F)cc3s2)C1 (stereo not drawn)				99	94	88
CCN1CC2CC2(c2cc3ccccc3n2C)C1 (stereo not drawn)				65	32	29
c1ccc2sc(C34CNCC3C4)nc2c1 (stereo not drawn)				7	5	72
Fc1ccc2sc(C34CNCC3C4)cc2c1 (stereo not drawn)				98	78	91
CN1C[C@H]2C[C@]2(c2cc3ccccc3s2)C1	263	195	107	89	83	75
c1ccc2sc([C@@]34CNC[C@H]3C4)cc2c1	481	149	99	76	90	84
CC(C)N1CC2CC2(c2cc3ccccc3n2C)C1 (stereo not drawn)				83	7	13
Fc1ccc2cc(C34CNCC3C4)sc2c1 (stereo not drawn)				100	99	98
Cc1ccc(C23CNCC2C3)s1 (stereo not drawn)				35	20	59
CN1CC2CC2(c2coc3ccccc23)C1 (stereo not drawn)	1450	475	138	45	67	82
CN1C[C@H]2C[C@@]2(c2cc3ccccc3s2)C1	54	224	71	99	82	89
CN1CC2CC2(c2csc3ccc(Cl)cc23)C1 (stereo not drawn)				50	1	39
CN1CC2CC2(c2cc3ccccc3s2)C1 (stereo not drawn)	34	98	60	92	88	71
c1ccc2sc(C34CNCC3C4)cc2c1 (stereo not drawn)	88	82	20	66	91	90
Clc1ccc2scc(C34CNCC3C4)c2c1 (stereo not drawn)				18	13	50
CN1CC2CC2(c2ccc3c(ccn3C)c2)C1 (stereo not drawn)	154	811	186	71	45	53
c1ccc2sc([C@]34CNC[C@H]3C4)cc2c1	193	52	14	96	90	97
CN1CC2CC2(c2cc3ccccc3n2C)C1 (stereo not drawn)				64	19	35
c1ccc2c(C34CNCC3C4)coc2c1 (stereo not drawn)	188	770	82	57	63	77
CN1CC2CC2(c2cc3cc(F)ccc3s2)C1 (stereo not drawn)				94	63	70
CCN1CC2CC2(c2ccc3c(ccn3C)c2)C1 (stereo not drawn)	308	215	138	59	65	39
CN1CC2CC2(c2ccc3ncccc3c2)C1 (stereo not drawn)				93	12	13
c1cnc2ccc(C34CNCC3C4)cc2c1 (stereo not drawn)				63	17	68
c1ccc2ncc(C34CNCC3C4)cc2c1 (stereo not drawn)				14	10	64
